# Measured values reported in ChEMBL document CHEMBL3046732, “Synthesis and biological evaluation of new [1,3,4]thiadiazepino[7,6-b]quinolin-2-amines as potent anti-microbial agents” (2013).
# How the values were obtained:
# Trichoderma reesei = test: Antimicrobial activity against Trichoderma reesei assessed as growth inhibition by microdilution method; format: functional
# Bacillus subtilis = test: Antimicrobial activity against Bacillus subtilis assessed as growth inhibition by microdilution method
# Escherichia coli = test: Antimicrobial activity against Escherichia coli assessed as growth inhibition by microdilution method
# Streptococcus pyogenes = test: Antimicrobial activity against Streptococcus pyogenes assessed as growth inhibition by microdilution method
# Staphylococcus aureus = test: Antimicrobial activity against Staphylococcus aureus assessed as growth inhibition by microdilution method
# Curvularia australiensis = test: Antimicrobial activity against Curvularia australiensis assessed as growth inhibition by microdilution method; format: functional
# Aspergillus niger = test: Antimicrobial activity against Aspergillus niger assessed as growth inhibition by microdilution method; format: functional
# Salmonella typhimurium = test: Antimicrobial activity against Salmonella enterica subsp. enterica serovar Typhimurium assessed as growth inhibition by microdilution method
# Alternaria alternata = test: Antimicrobial activity against Alternaria alternata assessed as growth inhibition by microdilution method; format: functional
# Aspergillus flavus = test: Antimicrobial activity against Aspergillus flavus assessed as growth inhibition by microdilution method; format: functional
# Klebsiella aerogenes = test: Antimicrobial activity against Enterobacter aerogenes assessed as growth inhibition by microdilution method
SMILES,MIC (Trichoderma reesei) [µg/mL],MIC (Bacillus subtilis) [µg/mL],MIC (Escherichia coli) [µg/mL],MIC (Streptococcus pyogenes) [µg/mL],MIC (Staphylococcus aureus) [µg/mL],MIC (Curvularia australiensis) [µg/mL],MIC (Aspergillus niger) [µg/mL],MIC (Salmonella typhimurium) [µg/mL],MIC (Alternaria alternata) [µg/mL],MIC (Aspergillus flavus) [µg/mL],MIC (Klebsiella aerogenes) [µg/mL]
Cc1c(Cl)ccc2cc3c(nc12)SC(Nc1cccc(F)c1)=NN=C3,250,60,500,1000,1000,1000,1000,1000,1000,1000,500
Cc1c(Cl)ccc2cc3c(nc12)SC(Nc1ccc(Cl)cc1)=NN=C3,125,60,500,500,1000,500,500,1000,250,1000,500
Cc1ccc2nc3c(cc2c1)C=NN=C(NCCN1CCOCC1)S3,250,> 1000,500,> 1000,1000,500,500,1000,500,500,1000
COc1ccc2nc3c(cc2c1)C=NN=C(NCc1ccccc1)S3,500,1000,1000,1000,1000,1000,1000,500,1000,1000,125
COc1ccc2nc3c(cc2c1)C=NN=C(Nc1c(C)cccc1C)S3,500,1000,500,500,1000,500,1000,500,1000,500,500
Cc1c(Cl)ccc2cc3c(nc12)SC(NCCN1CCOCC1)=NN=C3,1000,250,500,250,250,1000,1000,125,1000,1000,250
Cc1ccc(NC2=NN=Cc3cc4ccc(Cl)c(C)c4nc3S2)c(C)c1,250,30,60,60,500,500,500,500,250,500,500
Cc1cccc2cc3c(nc12)SC(Nc1cccc(F)c1)=NN=C3,500,1000,1000,500,500,1000,1000,500,500,1000,1000
Cc1c(Cl)ccc2cc3c(nc12)SC(Nc1ccccc1)=NN=C3,250,125,60,60,> 1000,1000,1000,> 1000,250,500,60
Cc1c(Cl)ccc2cc3c(nc12)SC(Nc1ccccc1F)=NN=C3,250,60,500,60,500,1000,500,500,500,500,500
Cc1c(Cl)ccc2cc3c(nc12)SC(Nc1cccc(Cl)c1)=NN=C3,250,125,60,125,500,1000,500,1000,500,500,1000
Cc1cccc2cc3c(nc12)SC(Nc1ccccc1Cl)=NN=C3,1000,> 1000,> 1000,> 1000,> 1000,500,> 1000,> 1000,1000,1000,> 1000
Cc1cccc2cc3c(nc12)SC(Nc1ccccc1)=NN=C3,500,1000,1000,1000,1000,> 1000,1000,1000,1000,1000,1000

# Other lines, results leading:
MIC (Trichoderma reesei) [µg/mL],MIC (Bacillus subtilis) [µg/mL],MIC (Escherichia coli) [µg/mL],MIC (Streptococcus pyogenes) [µg/mL],MIC (Staphylococcus aureus) [µg/mL],MIC (Curvularia australiensis) [µg/mL],MIC (Aspergillus niger) [µg/mL],MIC (Salmonella typhimurium) [µg/mL],MIC (Alternaria alternata) [µg/mL],MIC (Aspergillus flavus) [µg/mL],MIC (Klebsiella aerogenes) [µg/mL],SMILES
500,1000,> 1000,> 1000,> 1000,1000,500,> 1000,500,1000,> 1000,CCc1ccc(NC2=NN=Cc3cc4cc(C)ccc4nc3S2)cc1
1000,250,500,500,500,500,> 1000,500,500,1000,500,COc1ccc2nc3c(cc2c1)C=NN=C(Nc1ccc(C)cc1)S3
500,1000,500,1000,1000,1000,1000,125,1000,500,1000,COc1ccc2nc3c(cc2c1)C=NN=C(Nc1ccccc1C)S3
500,1000,1000,1000,1000,1000,1000,1000,1000,> 1000,1000,Cc1ccc2nc3c(cc2c1)C=NN=C(NCc1ccccc1)S3
125,500,1000,500,500,1000,250,1000,1000,125,500,Cc1ccc2nc3c(cc2c1)C=NN=C(Nc1ccccc1C)S3
250,125,500,60,1000,500,500,1000,250,500,1000,Cc1c(Cl)ccc2cc3c(nc12)SC(Nc1ccc(F)cc1)=NN=C3
1000,125,1000,500,1000,> 1000,1000,1000,1000,> 1000,1000,CCc1ccc(NC2=NN=Cc3cc4ccc(Cl)c(C)c4nc3S2)cc1
500,1000,1000,> 1000,1000,1000,1000,1000,500,1000,250,Cc1ccc2nc3c(cc2c1)C=NN=C(Nc1cccc(Cl)c1)S3
500,1000,1000,1000,1000,1000,1000,1000,1000,500,1000,Cc1ccc(NC2=NN=Cc3cc4cccc(C)c4nc3S2)cc1
1000,1000,1000,1000,1000,500,1000,1000,500,250,1000,Cc1cccc2cc3c(nc12)SC(Nc1ccc(Cl)cc1)=NN=C3
500,500,500,500,500,1000,500,500,500,500,500,CCc1ccc(NC2=NN=Cc3cc4cc(OC)ccc4nc3S2)cc1
500,1000,500,1000,1000,500,1000,500,250,1000,1000,COc1ccc2nc3c(cc2c1)C=NN=C(Nc1ccc(C)cc1C)S3
1000,250,500,500,250,> 1000,1000,250,1000,> 1000,125,Cc1ccc2nc3c(cc2c1)C=NN=C(Nc1ccc(F)cc1)S3
500,1000,> 1000,> 1000,1000,500,500,> 1000,30,1000,1000,Cc1ccc2nc3c(cc2c1)C=NN=C(Nc1ccc(Cl)cc1)S3
1000,1000,500,500,1000,1000,> 1000,1000,1000,500,60,Cc1ccc2nc3c(cc2c1)C=NN=C(Nc1ccccc1Cl)S3
